Source: ChEMBL document CHEMBL1123573, “Design and synthesis of peptide derivatives of a 3-deoxy-D-manno-2-octulosonic acid (KDO) analogue as novel antibacterial agents acting upon lipopolysaccharide biosynthesis” (1987)
In brackets after ≈: the same amount, converted by molar mass.

Key:
[1] = system: Salmonella typhimurium; experiment: In vitro testing for minimum inhibitory concentration against Salmonella Typhimurium SL 1102; assay type: functional, Salmonella enterica subsp. enterica serovar Typhimurium
[2] = system: Salmonella typhimurium; experiment: In vitro testing for minimum inhibitory concentration against Salmonella Typhimurium LT2 168; assay type: functional, Salmonella enterica subsp. enterica serovar Typhimurium
[3] = system: Escherichia coli; experiment: In vitro testing for minimum inhibitory concentration against Escherichia coli ATCC 11303.; assay type: functional
[4] = Salmonella enterica subsp. enterica serovar Typhimurium

| Molecule | MIC ([1]; Salmonella enterica) | MIC ([2]; Salmonella enterica) | MIC [3] | MIC [1, 4] | MIC [2, 4] |
| --- | --- | --- | --- | --- | --- |
| CC1(C)S[C@@H]2[C@H](NC(=O)[C@H](N)c3ccccc3)C(=O)N2[C@H]1C(=O)O [AMPICILLIN] | 2 µM (≈ 0.699 µg/mL) | 0.3 µM (≈ 0.105 µg/mL) | 1 µM (≈ 0.349 µg/mL) |  |  |
| CSCCC(N)C(=O)NCC(O)C1OC(C(=O)O)CC(O)C1O (stereo not given) | > 2000 µM | > 2000 µM | > 2000 µM |  |  |
| CC(N)C(=O)NCC(O)C1OC(C(=O)O)CC(O)C1O (stereo not given) | > 2000 µM | > 2000 µM | > 2000 µM |  |  |
| GENTAMICIN |  |  | < 0.05 µM | < 0.05 µM | < 0.05 µM |
| C[C@H](N)C(=O)N[C@@H](C)C(=O)NC[C@H](O)[C@H]1O[C@H](C(=O)O)C[C@@H](O)[C@H]1O | 4 µM (≈ 1.45 µg/mL) | 60 µM (≈ 21.8 µg/mL) | 4 µM (≈ 1.45 µg/mL) |  |  |
